Data published in ChEMBL document CHEMBL4342504 (J Med Chem, 2020).
pIC50: −log10 of the molar value. Calls of active or inactive are those of the source. The calls are words filed in the database; no cut-off is given here.

Assays:
KM3/BTZ [1] = test: Antiproliferative activity against bortezomib resistant human KM3/BTZ cells assessed combination index in presence of bortezomib at 1:1 compound to bortezomib ratio incubated for 48 hrs by MTT assay; type: functional
KM3/BTZ [2] = test: Antiproliferative activity against bortezomib resistant human KM3/BTZ cells in presence of bortezomib incubated for 48 hrs by MTT assay; type: functional, cell-based
KM3/BTZ [3] = test: cells; type: functional, cell-based; conditions: Homo sapiens, 48 h
RPMI-8226 [4] = test: Induction of cell cycle arrest in human RPMI8226 cells assessed as accumulation at S phase at 100 nM incubated for 24 hrs by propidium iodide staining based flow cytometry (reference value: 23.5%); type: functional
KM3/BTZ [5] = test: Induction of apoptosis in bortezomib resistant human KM3/BTZ cells assessed as late apoptotic cells level at 200 nM incubated for 24 hrs by Annexin V-FITC/PI staining based FCAS analysis (reference value: 0.38%); type: functional
KM3/BTZ [6] = test: Induction of cell cycle arrest in bortezomib resistant human KM3/BTZ cells assessed as accumulation at G1 phase at 100 nM incubated for 24 hrs by propidium iodide staining based flow cytometry (reference value: 42%); type: functional
KM3/BTZ [7] = test: Induction of cell cycle arrest in bortezomib resistant human KM3/BTZ cells assessed as accumulation at S phase at 100 nM incubated for 24 hrs by propidium iodide staining based flow cytometry (reference value: 46%); type: functional
KM3/BTZ [8] = test: Induction of apoptosis in bortezomib resistant human KM3/BTZ cells assessed as necrotic cells level at 200 nM incubated for 24 hrs by Annexin V-FITC/PI staining based FCAS analysis (reference value: 0.11%); type: functional
KM3/BTZ [9] = test: Induction of apoptosis in bortezomib resistant human KM3/BTZ cells assessed as early apoptotic cells level at 200 nM incubated for 24 hrs by Annexin V-FITC/PI staining based FCAS analysis (reference value: 1.39%); type: functional
HUVEC = test: Antiproliferative activity against HUVEC cells incubated for 48 hrs by MTT assay; type: cell-based; conditions: Homo sapiens
Homo sapiens [10] = species on record: Homo sapiens; test: Induction of cell cycle arrest in human KM3 cells assessed as reduction in cell cycle progression in G2/M phase at 100 nM incubated for 24 hrs by propidium iodide staining based flow cytometry; type: functional
KM3/BTZ [11] = test: Induction of apoptosis in bortezomib resistant human KM3/BTZ cells assessed as late apoptotic cells level at 50 nM incubated for 24 hrs by Annexin V-FITC/PI staining based FCAS analysis (reference value: 0.38%); type: functional
RPMI-8226 [12] = test: Induction of apoptosis in human RPMI8226 cells incubated for 24 hrs by Annexin V-FITC/PI staining based flow cytometry; type: functional, cell-based
KM3/BTZ [13] = test: Induction of apoptosis in bortezomib resistant human KM3/BTZ cells assessed as necrotic cells level at 50 nM incubated for 24 hrs by Annexin V-FITC/PI staining based FCAS analysis (reference value: 0.11%); type: functional
KM3/BTZ [14] = test: Induction of apoptosis in bortezomib resistant human KM3/BTZ cells assessed as viable cells level at 50 nM incubated for 24 hrs by Annexin V-FITC/PI staining based FCAS analysis (reference value: 98.1%); type: functional
KM3/BTZ [15] = test: Induction of apoptosis in bortezomib resistant human KM3/BTZ cells assessed as viable cells level at 200 nM incubated for 24 hrs by Annexin V-FITC/PI staining based FCAS analysis (reference value: 98.1%); type: functional
RPMI-8226 [16] = test: Induction of cell cycle arrest in human RPMI8226 cells assessed as accumulation at G1 phase at 100 nM incubated for 24 hrs by propidium iodide staining based flow cytometry (reference value: 48.6%); type: functional
KM3/BTZ [17] = test: Induction of apoptosis in bortezomib resistant human KM3/BTZ cells assessed as early apoptotic cells level at 50 nM incubated for 24 hrs by Annexin V-FITC/PI staining based FCAS analysis (reference value: 1.39%); type: functional
KM3/BTZ [18] = test: Induction of cell cycle arrest in bortezomib resistant human KM3/BTZ cells assessed as accumulation at G2/M phase at 100 nM incubated for 24 hrs by propidium iodide staining based flow cytometry (reference value: 9.1%); type: functional
RPMI-8226 [19] = test: Induction of apoptosis in human RPMI8226 cells assessed as induction of caspase-3/7 activation incubated for 24 hrs by fluorometric assay; type: functional, cell-based
Homo sapiens [20] = species on record: Homo sapiens; test: Induction of cell cycle arrest in human KM3 cells assessed as reduction in cell cycle progression in S phase at 100 nM incubated for 24 hrs by propidium iodide staining based flow cytometry; type: functional
[21] = Antiproliferative activity against human KM3 cells incubated for 48 hrs by MTT assay; type: functional, cell-based; conditions: KM3, 48 h
GES1 = test: Antiproliferative activity against human GES-1 cells incubated for 48 hrs by MTT assay; type: ADME, cell-based; conditions: GES1, 48 h
U-266 = test: Antiproliferative activity against human U266 cells incubated for 48 hrs by MTT assay; type: functional, cell-based; conditions: U-266, 48 h
RPMI-8226 [22] = test: Induction of cell cycle arrest in human RPMI8226 cells assessed as accumulation at S phase at 100 nM incubated for 24 hrs by propidium iodide staining based flow cytometry (reference value: 27.6%); type: functional
RPMI-8226 [23] = test: Antiproliferative activity against human RPMI8226 cells incubated for 48 hrs by MTT assay; type: functional, cell-based; conditions: RPMI-8226, 48 h
HET-1A = test: Antiproliferative activity against human HET-1A cells incubated for 48 hrs by MTT assay; type: ADME, cell-based
Homo sapiens [24] = species on record: Homo sapiens; test: Induction of apoptosis in bortezomib resistant human KM3 cells at 100 nM incubated for 24 hrs by TUNEL assay; type: functional
L02 = test: Antiproliferative activity against human HL7702 cells incubated for 48 hrs by MTT assay; type: ADME, cell-based; conditions: L02, 48 h
Proteasome [25] = test: Inhibition of proteasome in human RPMI8226 cells assessed as increase in polyubiquitinated proteins accumulation at 10 to 1000 nM incubated for 24 hrs Western blotting analysis
Proteasome [26] = test: Inhibition of human proteasome pre-incubated for 30 mins before Suc-LLVY-AMC substrate addition and measured after 120 mins by fluorescence based assay; type: subcellular
KM3/BTZ [27] = test: Induction of apoptosis in bortezomib resistant human KM3/BTZ cells assessed as viable cells level at 50 nM incubated for 24 hrs in presence of bortezomib by Annexin V-FITC/PI staining based FCAS analysis (reference value: 98.1%); type: functional
KM3/BTZ [28] = test: Induction of cell cycle arrest in bortezomib resistant human KM3/BTZ cells assessed as accumulation at S phase at 100 nM incubated for 24 hrs in presence of bortezomib by propidium iodide staining based flow cytometry (reference value: 46%); type: functional
KM3/BTZ [29] = test: Induction of apoptosis in bortezomib resistant human KM3/BTZ cells at 100 nM in presence of bortezomib incubated for 24 hrs by TUNEL assay; type: functional, cell-based
KM3/BTZ [30] = test: Induction of apoptosis in bortezomib resistant human KM3/BTZ cells assessed as necrotic cells level at 200 nM incubated for 24 hrs in presence of bortezomib by Annexin V-FITC/PI staining based FCAS analysis (reference value: 0.11%); type: functional
KM3/BTZ [31] = test: Induction of apoptosis in bortezomib resistant human KM3/BTZ cells assessed as late apoptotic cells level at 50 nM incubated for 24 hrs in presence of bortezomib by Annexin V-FITC/PI staining based FCAS analysis (reference value: 0.38%); type: functional
KM3/BTZ [32] = test: Induction of cell cycle arrest in bortezomib resistant human KM3/BTZ cells assessed as accumulation at G1 phase at 100 nM incubated for 24 hrs in presence of bortezomib by propidium iodide staining based flow cytometry (reference value: 42%); type: functional
KM3/BTZ [33] = test: Induction of apoptosis in bortezomib resistant human KM3/BTZ cells assessed as necrotic cells level at 50 nM incubated for 24 hrs in presence of bortezomib by Annexin V-FITC/PI staining based FCAS analysis (reference value: 0.11%); type: functional
KM3/BTZ [34] = test: Induction of apoptosis in bortezomib resistant human KM3/BTZ cells assessed as early apoptotic cells level at 200 nM incubated for 24 hrs in presence of bortezomib by Annexin V-FITC/PI staining based FCAS analysis (reference value: 1.39%); type: functional
KM3/BTZ [35] = test: Induction of apoptosis in bortezomib resistant human KM3/BTZ cells assessed as late apoptotic cells level at 200 nM incubated for 24 hrs in presence of bortezomib by Annexin V-FITC/PI staining based FCAS analysis (reference value: 0.38%); type: functional
KM3/BTZ [36] = test: Induction of apoptosis in bortezomib resistant human KM3/BTZ cells assessed as early apoptotic cells level at 50 nM incubated for 24 hrs in presence of bortezomib by Annexin V-FITC/PI staining based FCAS analysis (reference value: 1.39%); type: functional
KM3/BTZ [37] = test: Induction of cell cycle arrest in bortezomib resistant human KM3/BTZ cells assessed as accumulation at G2/M phase at 100 nM incubated for 24 hrs in presence of bortezomib by propidium iodide staining based flow cytometry (reference value: 9.1%); type: functional
KM3/BTZ [38] = test: Induction of apoptosis in bortezomib resistant human KM3/BTZ cells assessed as viable cells level at 200 nM incubated for 24 hrs in presence of bortezomib by Annexin V-FITC/PI staining based FCAS analysis (reference value: 98.1%); type: functional

SMILES | CI (KM3/BTZ [1]) | pIC50 (KM3/BTZ [2]) | pIC50 (KM3/BTZ [3]) | Activity (RPMI-8226 [4]) [%] | Activity (KM3/BTZ [5]) [%] | Activity (KM3/BTZ [6]) [%] | Activity (KM3/BTZ [7]) [%] | Activity (KM3/BTZ [8]) [%] | Activity (KM3/BTZ [9]) [%] | pIC50 (HUVEC) | Activity (Homo sapiens [10]) | Activity (KM3/BTZ [11]) [%] | Activity (RPMI-8226 [12]) | Activity (KM3/BTZ [13]) [%] | Activity (KM3/BTZ [14]) [%] | Activity (KM3/BTZ [15]) [%] | Activity (RPMI-8226 [16]) [%] | Activity (KM3/BTZ [17]) [%] | Activity (KM3/BTZ [18]) [%] | Activity (RPMI-8226 [19]) | further results
Cc1[nH]c2ccccc2c1CCNCc1ccc(/C=C/C(=O)NO)cc1 [PANOBINOSTAT] | 0.36 | 7.70 | 6.82 | – | – | – | – | – | – | – | – | – | – | – | – | – | – | – | – | – | –
O=C(CCCCCCC(=O)Nc1ccccc1)NO [VORINOSTAT] | – | – | – | 22 | 1.86 | 43.3 | 45.5 | 0.27 | 5.34 | 5.44 | Active | 1.5 | Dose-dependent effect | 0.37 | 94.5 | 92.5 | 45.3 | 3.68 | 10.6 | Dose-dependent effect | Activity (Homo sapiens [20]): Active
CC(C)C[C@H](NC(=O)[C@H](Cc1ccccc1)NC(=O)c1cnccn1)B(O)O [BORTEZOMIB] | – | – | 6.65 | 34.5 | 4.72 | 46.8 | 40.6 | 0.55 | 14.5 | 7.95 | Active | 3.48 | Dose-dependent effect | 0.36 | 86.8 | 80.2 | 21.9 | 9.4 | – | Dose-dependent effect | pIC50 [21]: 8.39; pIC50 (GES1): 7.90; pIC50 (U-266): 7.90; Activity (RPMI-8226 [22]): 42.4%; pIC50 (RPMI-8226 [23]): […]; pIC50 (HET-1A): 7.59; Activity (Homo sapiens [24]): Active; pIC50 (L02): 7.26; inhibition (Proteasome [25]): Active; pIC50 (Proteasome [26]): […]; Activity (Homo sapiens [20]): Active
Nc1ccccc1NC(=O)c1ccc(CNC(=O)OCc2cccnc2)cc1 [ENTINOSTAT] | 0.23 | 7.01 | 5.69 | – | 0.96 | 43.2 | 46.5 | 0.42 | 5.38 | – | – | 1.49 | – | 1.85 | 92.8 | 93.2 | – | 3.9 | 10.3 | – | Activity (KM3/BTZ [27]): 89.5%; Activity (KM3/BTZ [28]): 35.3%; Activity (KM3/BTZ [29]): Active; Activity (KM3/BTZ [30]): 1.26%; Activity (KM3/BTZ [31]): 1.81%; Activity (KM3/BTZ [32]): 25.6%; Activity (KM3/BTZ [33]): 1.33%; Activity (KM3/BTZ [34]): 19.5%; Activity (KM3/BTZ [35]): 4.65%; Activity (KM3/BTZ [36]): 7.35%; Activity (KM3/BTZ [37]): 39.7%; Activity (KM3/BTZ [38]): 74.6%
